{"source": "patent US7700587B2", "about": "“Haloperidol analogs” (Florida A&M University, priority 2004, dated 2010)", "key": {"[1]": {"system": "Swiss male mice", "test": "Apomorphine induced climbing-stereotypy", "format": "in vivo", "settings": "for inhibition of apomorphine induced climbing (dopamine receptor antagonist in vivo): intraperitoneal, apomorphine challenge"}, "[2]": {"system": "Male SD rats", "test": "Bar test for catalepsy", "format": "in vivo", "settings": "for statistical comparison of effects in catalepsy bar test (t-test, p<0.05): all four doses; for catalepsy (EPS) in bar test: subcutaneous, at the doses used", "description": "Bar test for catalepsy: A modified bar test by Needham et al, supra was used. […] Catalepsy severity was assessed immediately at various time points (15, 30, 45, 60, and 90 min) post injection, by scoring how long the rat maintained both forepaws motionless on a horizontal metal bar (1.1 cm in diameter, 10 cm above the bench top in a box). A score of 1 was given for every 5 seconds (2 min. maximum) the animal remained on the bar. Mean scores from 5 animals per time point were recorded for catalepsy and plotted in FIG. 2.\nStatistical analysis: The student t-test was used to compare the three compounds used in the animal behavioral tests. Results were considered significant at p<0.05."}}}
{"molecule": "8-chloro-1-(4-methyl-1-piperazinyl)-5H-dibenzo[b,e]-[1,4]-diazepine [Clozapine (3), reference compound]", "values": [{"measurement": "inhibition of apomorphine induced climbing (dopamine receptor antagonist in vivo)", "setting": "[1]", "result": "acting as a dopamine receptor antagonist"}]}
{"molecule": "O=C(CCCN1CCC(O)(c2ccc(Cl)cc2)C1)c1ccc(F)cc1", "note": "(racemic) [Analog [A] (2), 4-[3-hydroxy-3-(4′-chlorophenyl)pyrrolidinyl]-4″-fluorobutyrophenone]", "values": [{"measurement": "statistical comparison of effects in climbing test (t-test, p<0.05)", "setting": "[1]; all four doses", "result": "significantly different from compound 1 but non significantly different from compound 3"}, {"measurement": "inhibition of apomorphine induced climbing (dopamine receptor antagonist in vivo)", "setting": "[1]; listed as 2", "result": "could inhibit apormophine induced climbing in mice"}, {"measurement": "inhibition of apomorphine induced climbing (dopamine receptor antagonist in vivo)", "setting": "[1]; listed as drawing 7", "result": "act as antidopaminergics in vivo"}, {"measurement": "statistical comparison of effects in catalepsy bar test (t-test, p<0.05)", "setting": "[2]", "result": "statistically similar to clozapine's"}, {"measurement": "statistical comparison of effects in catalepsy bar test (t-test, p<0.05)", "setting": "[2]; listed as the analog", "result": "significantly different from compound 1 but non significantly different from compound 3"}, {"measurement": "catalepsy (EPS) in bar test", "setting": "[2]; listed as 2", "result": "no catalepsy"}, {"measurement": "catalepsy (EPS) in bar test", "setting": "[2]; listed as drawing 7", "result": "much less severe EPS (manifested as catalepsy in animal models) than haloperidol"}]}
{"molecule": "O=C(CCCN1CCC(O)(c2ccc(Cl)cc2)CC1)c1ccc(F)cc1", "note": "[Haloperidol (1), 4-[4-(4-chlorophenyl)-4-hydroxy-1-piperidinyl]-1-(4-fluorophenyl)-1-butanone, reference compound]", "values": [{"measurement": "inhibition of apomorphine induced climbing (dopamine receptor antagonist in vivo)", "setting": "[1]", "result": "acting as a dopamine receptor antagonist"}]}
